Test results taken from ChEMBL document CHEMBL5338822, “The Role of Allylic Strain for Conformational Control in Medicinal Chemistry” (J Med Chem, 2023).

Key:
[1] = target: T1, Sphingosine 1-phosphate receptor 1 (Homo sapiens, UniProt P21453); test: Inhibition of human S1P1 expressed in human HeLa cells incubated for 20 mins by FLIPR assay; type: cell-based
[2] = target: T1, Sphingosine 1-phosphate receptor 1; test: Antagonist activity at human S1P1 transfected in CHO cells incubated for 120 mins by [gamma-35S]GTP binding assay; type: functional, cell-based

T1 sequence (P21453 whole entry): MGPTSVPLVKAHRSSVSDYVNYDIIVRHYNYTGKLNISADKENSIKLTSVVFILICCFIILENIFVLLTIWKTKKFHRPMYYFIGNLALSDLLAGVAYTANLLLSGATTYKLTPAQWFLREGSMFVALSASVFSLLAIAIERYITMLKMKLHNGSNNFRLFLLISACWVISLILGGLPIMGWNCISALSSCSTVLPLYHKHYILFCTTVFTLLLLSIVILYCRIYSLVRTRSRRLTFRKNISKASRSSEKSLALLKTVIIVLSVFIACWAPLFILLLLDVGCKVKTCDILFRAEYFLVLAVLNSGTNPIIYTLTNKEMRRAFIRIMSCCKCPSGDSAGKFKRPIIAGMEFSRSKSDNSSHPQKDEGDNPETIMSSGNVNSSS

IC50 [1]: 170 nM
IC50 [2]: 4.27 µM
SMILES: Cc1cc(-c2cccc(NCc3ccc(Cl)c(Cl)c3)c2)ccc1C(=O)N[C@@H](C)C(=O)O
